Source: PubChem BioAssay AID1963984 (Molecular Pharmacology Branch, DTP, NCI, 2024)

Tested on: 233499-124-R-J3-PDC spheroids with HUVEC/MSC, viability
Assay: Anticancer human tumor 233499-124-R-J3-PDC patient-derived colon adenocarcinoma cell line growth inhibition [PI3K]
Conditions: for viability, T/C: stronger effect = lower value
In short: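 We assembled tumor spheroids that included a stromal compartment of HUVEC and MSCs, then exposed them to targeted agents alone and together with PI3K pathway inhibitors. Concentration series descended by half-log from clinically achievable Cmax levels. Viability served as the endpoint.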

[1] = curve of first compound, second compound 0.0316 µM
[2] = curve of first compound, second compound 0.1 µM
[3] = curve of first compound, second compound 0.316 µM
[4] = curve of first compound, second compound 1 µM
[5] = second compound 0.0316 µM, first compound 0.0316 µM
[6] = second compound 0.0316 µM, first compound 0.1 µM
[7] = second compound 0.1 µM, first compound 0.0316 µM
[8] = second compound 0.1 µM, first compound 0.1 µM
[9] = second compound 0.316 µM, first compound 0.0316 µM
[10] = second compound 0.316 µM, first compound 0.1 µM
[11] = second compound 1 µM, first compound 0.0316 µM
[12] = second compound 1 µM, first compound 0.1 µM
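Further: spheroids exposed to agents for seven days before readout.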
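Wherever viability, T/C is given: percent viability relative to DMSO vehicle control taken as 100%.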

`Cn1ncc(Cl)c1-c1cc(C(=O)NC(CN)Cc2cccc(F)c2)sc1Cl` (configuration not stated) + Cc1nc(NC(=O)N2CCCC2C(N)=O)sc1-c1ccnc(C(C)(C)C(F)(F)F)c1 showed an IC50 [1] of 5530 nM, an IC50 [2] of 3310 nM and an IC50 [3] of 4030 nM. For the same compound, the IC50 [4] was 2630 nM, the IC50 (curve of first compound, second compound 3.16 µM) was 558 nM and the IC50 (curve of first compound, second compound 10 µM) was under 31.6 nM. It also gave a viability, T/C [5] of 110%, a viability, T/C [6] of 90.8% and a viability, T/C (second compound 0.0316 µM, first compound 0.316 µM) of 87.1%. For the same compound, the viability, T/C (second compound 0.0316 µM, first compound 1 µM) was 77.2%, the viability, T/C (second compound 0.0316 µM, first compound 3.16 µM) was 70% and the viability, T/C (second compound 0.0316 µM, first compound 10 µM) was 34.1%. For the same compound, the viability, T/C [7] was 102%, the viability, T/C [8] was 86.6% and the viability, T/C (second compound 0.1 µM, first compound 0.316 µM) was 82.8%. It also gave a viability, T/C (second compound 0.1 µM, first compound 1 µM) of 57.2%, a viability, T/C (second compound 0.1 µM, first compound 3.16 µM) of 53.5% and a viability, T/C (second compound 0.1 µM, first compound 10 µM) of 39.3%. It also gave a viability, T/C [9] of 85.3%, a viability, T/C [10] of 94% and a viability, T/C (second compound 0.316 µM, first compound 0.316 µM) of 76.2%. For the same compound, the viability, T/C (second compound 0.316 µM, first compound 1 µM) was 64.4%, the viability, T/C (second compound 0.316 µM, first compound 3.16 µM) was 62.1% and the viability, T/C (second compound 0.316 µM, first compound 10 µM) was 27.7%. It also gave a viability, T/C [11] of 81.9%, a viability, T/C [12] of 74.3% and a viability, T/C (second compound 1 µM, first compound 0.316 µM) of 72.7%. For the same compound, the viability, T/C (second compound 1 µM, first compound 1 µM) was 75.2%, the viability, T/C (second compound 1 µM, first compound 3.16 µM) was 45.3% and the viability, T/C (second compound 1 µM, first compound 10 µM) was 18.7%. For the same compound, the viability, T/C (second compound 3.16 µM, first compound 0.0316 µM) was 62%, the viability, T/C (second compound 3.16 µM, first compound 0.1 µM) was 69.9% and the viability, T/C (second compound 3.16 µM, first compound 0.316 µM) was 55.3%. The viability, T/C (second compound 3.16 µM, first compound 1 µM) was 38.1%, the viability, T/C (second compound 3.16 µM, first compound 3.16 µM) was 35.3% and the viability, T/C (second compound 3.16 µM, first compound 10 µM) was 14.4%. The viability, T/C (second compound 10 µM, first compound 0.0316 µM) was 29.3%, the viability, T/C (second compound 10 µM, first compound 0.1 µM) was 29.4% and the viability, T/C (second compound 10 µM, first compound 0.316 µM) was 23%. For the same compound, the viability, T/C (second compound 10 µM, first compound 1 µM) was 25.5%, the viability, T/C (second compound 10 µM, first compound 3.16 µM) was 30% and the viability, T/C (second compound 10 µM, first compound 10 µM) was 2.94%.

`CC(C)n1nc(-c2ccc3oc(N)nc3c2)c2c(N)ncnc21` + CC(Nc1ccc2c(c1)OCCn1cc(N3C(=O)OCC3C(F)F)nc1-2)C(N)=O gave an IC50 (curve of first compound, second compound 0.00316 µM) of over 100 nM, an IC50 (curve of first compound, second compound 0.01 µM) of over 100 nM and an IC50 [1] of over 100 nM. It also gave an IC50 [2] of 53.3 nM, an IC50 [3] of 15.1 nM and an IC50 [4] of 3.69 nM. It also gave a viability, T/C (second compound 0.00316 µM, first compound 0.000316 µM) of 73.5%, a viability, T/C (second compound 0.00316 µM, first compound 0.001 µM) of 90.1% and a viability, T/C (second compound 0.00316 µM, first compound 0.00316 µM) of 88%. It also gave a viability, T/C (second compound 0.00316 µM, first compound 0.01 µM) of 95.7%, a viability, T/C (second compound 0.00316 µM, first compound 0.0316 µM) of 81% and a viability, T/C (second compound 0.00316 µM, first compound 0.1 µM) of 50.2%. The viability, T/C (second compound 0.01 µM, first compound 0.000316 µM) was 97.8%, the viability, T/C (second compound 0.01 µM, first compound 0.001 µM) was 92.7% and the viability, T/C (second compound 0.01 µM, first compound 0.00316 µM) was 105%. The viability, T/C (second compound 0.01 µM, first compound 0.01 µM) was 89.4%, the viability, T/C (second compound 0.01 µM, first compound 0.0316 µM) was 78.3% and the viability, T/C (second compound 0.01 µM, first compound 0.1 µM) was 57.5%. The viability, T/C (second compound 0.0316 µM, first compound 0.000316 µM) was 103%, the viability, T/C (second compound 0.0316 µM, first compound 0.001 µM) was 83% and the viability, T/C (second compound 0.0316 µM, first compound 0.00316 µM) was 85.9%. It also gave a viability, T/C (second compound 0.0316 µM, first compound 0.01 µM) of 70.3%, a viability, T/C [5] of 91% and a viability, T/C [6] of 60.8%. The viability, T/C (second compound 0.1 µM, first compound 0.000316 µM) was 84%, the viability, T/C (second compound 0.1 µM, first compound 0.001 µM) was 61.3% and the viability, T/C (second compound 0.1 µM, first compound 0.00316 µM) was 66%. The viability, T/C (second compound 0.1 µM, first compound 0.01 µM) was 77%, the viability, T/C [7] was 66.6% and the viability, T/C [8] was 29.1%. The viability, T/C (second compound 0.316 µM, first compound 0.000316 µM) was 82.7%, the viability, T/C (second compound 0.316 µM, first compound 0.001 µM) was 49.3% and the viability, T/C (second compound 0.316 µM, first compound 0.00316 µM) was 73.5%. For the same compound, the viability, T/C (second compound 0.316 µM, first compound 0.01 µM) was 46.6%, the viability, T/C [9] was 52.8% and the viability, T/C [10] was 24.2%. It also gave a viability, T/C (second compound 1 µM, first compound 0.000316 µM) of 49.8%, a viability, T/C (second compound 1 µM, first compound 0.001 µM) of 48.4% and a viability, T/C (second compound 1 µM, first compound 0.00316 µM) of 59.2%. The viability, T/C (second compound 1 µM, first compound 0.01 µM) was 41.2%, the viability, T/C [11] was 26.3% and the viability, T/C [12] was 12.3%.

In the case of `C[C@@H](NC(=O)c1ncnc(N)c1Cl)c1ncc(C(=O)Nc2cc(C(F)(F)F)c(Cl)cn2)s1`, the viability, T/C (compound 3.16 µM) is reported as 110% [middle of 4 runs], the viability, T/C (compound 10 µM) is reported as 110% [middle of 4 runs] and the IC50 (curve of compound) is reported as over 10000 nM.
